Experimental data from article PMC7821958, “Synthesis, in vitro enzyme activity and molecular docking studies of new benzylamine-sulfonamide derivatives as selective MAO-B inhibitors” (Journal of Enzyme Inhibition and Medicinal Chemistry, 2020).
Like-named read-outs stand apart in the source and are kept apart here.

Key:
[1] = molecular target: T1, hMAO-A (Homo sapiens, UniProt P21397); test: MAO-A inhibition assay, fluorometric (Amplex Red / horseradish peroxidase-coupled); type: biochemical; details: read-out: MAO-A % Inhibition
T1 construct: purchased Sigma-Aldrich (Steinheim, Germany)
T1 sequence (P21397 1-527): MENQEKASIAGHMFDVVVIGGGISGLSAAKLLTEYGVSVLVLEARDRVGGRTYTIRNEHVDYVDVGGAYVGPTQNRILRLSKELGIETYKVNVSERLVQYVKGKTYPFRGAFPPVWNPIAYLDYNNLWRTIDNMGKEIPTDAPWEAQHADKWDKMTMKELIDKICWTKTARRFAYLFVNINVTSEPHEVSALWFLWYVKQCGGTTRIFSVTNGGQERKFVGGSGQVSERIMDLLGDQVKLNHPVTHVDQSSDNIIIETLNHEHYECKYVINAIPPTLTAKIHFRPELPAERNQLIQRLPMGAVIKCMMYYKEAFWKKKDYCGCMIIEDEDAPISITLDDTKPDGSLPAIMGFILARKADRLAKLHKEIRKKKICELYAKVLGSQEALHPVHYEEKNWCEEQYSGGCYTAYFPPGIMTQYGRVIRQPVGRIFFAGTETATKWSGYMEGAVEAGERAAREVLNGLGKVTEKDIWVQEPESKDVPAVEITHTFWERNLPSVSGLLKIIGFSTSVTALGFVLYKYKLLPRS
Procedure: A Biotek Precision XS robotic system (USA) was used for all pipetting operations. Measurements were performed with the use of BioTek-Synergy H1 microplate reader (USA) based upon the fluorescence generated (excitation, 535 nm, emission, 587 nm) over a 30 min period, in which the fluorescence increased linearly.
Enzymatic assay was performed according to recent method pronounced by our research group[17]^,[20–22]. Control, blank and all concentrations of obtained compounds were tested in quadruplicate and inhibition percent was calculated with following equation: % Inhibition=(FCt2 − FCt1) − (FIt2 − FIt1)/FCt2 − FCt1 × 100
FCt2: Fluorescence of a control well measured at t2 time, FCt1: Fluorescence of a control well measured at […]: Fluorescence of an inhibitor well measured at t2 time, FIt1: Fluorescence of an inhibitor well measured at t1 time,
The IC50 values were calculated using a dose-response curve achieved by plotting the percentage inhibition versus the log concentration using GraphPad ‘PRISM’ software (version 5.0).
All the obtained benzylamine-sulphonamide derivatives 4a–4u were investigated for their inhibitory activity against MAO isoforms using a previously described in vitro fluorometric method, which is based on the detection of H2O2 in a horseradish peroxidase-coupled reaction using 10-acetyl-3,7-dihydroxyphenoxazine (Amplex Red reagent)[17]^,[20–22].
The assay was carried out in two steps. […].

[2] = molecular target: T2, hMAO-B (Homo sapiens, UniProt P27338); test: MAO-B inhibition assay, fluorometric (Amplex Red / horseradish peroxidase-coupled); type: biochemical; details: for inhibition at 1000 µM: 10^−3 M; for inhibition at 100 µM: 10^−4 M; for inhibition at 10 µM: 10^−5 M; for inhibition at 1 µM: 10^−6 M; for inhibition at 0.1 µM: 10^−7 M; for inhibition at 0.01 µM: 10^−8 M; for inhibition at 0.001 µM: 10^−9 M; for IC50: Table 2, mean ± SD, read-out: IC50 against MAO-B;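 for all read-outs here: fluorescence read at Ex 535 nm and Em 587 nm over 30 min, linear phase, inhibition relative to uninhibited control wells, IC50 from log concentration–response curves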
T2 construct: purchased Sigma-Aldrich (Steinheim, Germany)
T2 sequence (P27338 1-520): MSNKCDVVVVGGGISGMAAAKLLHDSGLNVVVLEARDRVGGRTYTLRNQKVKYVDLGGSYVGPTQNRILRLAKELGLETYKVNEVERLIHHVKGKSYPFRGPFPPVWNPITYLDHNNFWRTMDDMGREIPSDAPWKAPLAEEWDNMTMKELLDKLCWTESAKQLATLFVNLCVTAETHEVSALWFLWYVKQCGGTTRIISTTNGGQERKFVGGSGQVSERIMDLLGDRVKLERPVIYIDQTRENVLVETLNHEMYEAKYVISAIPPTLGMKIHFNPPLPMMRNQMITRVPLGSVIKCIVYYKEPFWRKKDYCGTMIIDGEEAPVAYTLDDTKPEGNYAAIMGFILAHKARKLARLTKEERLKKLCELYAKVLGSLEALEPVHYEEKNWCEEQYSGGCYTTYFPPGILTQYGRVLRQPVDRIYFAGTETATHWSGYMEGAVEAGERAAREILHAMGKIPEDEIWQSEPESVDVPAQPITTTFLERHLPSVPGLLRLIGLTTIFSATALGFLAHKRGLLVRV
Text: FCt2: Fluorescence of a control well measured at t2 time, FCt1: Fluorescence of a control well measured at t2 time, FIt2: Fluorescence of an inhibitor well measured at t2 time, FIt1: Fluorescence of an inhibitor well measured at t1 time,

Compound	inhibition at 100 µM [1] [%]	inhibition at 1000 µM [1] [%]	inhibition at 1000 µM ([1]; 10^−3 M) [%]	inhibition at 100 µM ([1]; 10^−4 M) [%]	inhibition at 1000 µM [2] [%]	inhibition at 100 µM [2] [%]	melting point [°C]	inhibition at 10 µM [2] [%]	inhibition at 1 µM [2] [%]	inhibition at 0.1 µM [2] [%]	inhibition at 0.01 µM [2] [%]	inhibition at 0.001 µM [2] [%]	IC50 [2] [nM]
C#CCN(C)CCCOc1ccc(Cl)cc1Cl [Clorgiline, reference compound]	98.3 ± 1.82	99.4 ± 1.96	–	–	–	–	–	–	–	–	–	–	–
Cn1ccnc1SCC(=O)N(Cc1ccccc1)c1ccc(S(N)(=O)=O)cc1 [Compound 4a, N-Benzyl-2-((1-methyl-1H-imidazol-2-yl)thio)-N-(4-sulfamoylphenyl)acetamide]	–	–	35.1 ± 0.989	26.5 ± 0.856	92.3 ± 1.11	47 ± 0.958	137 to 139	–	–	–	–	–	–
Cn1cnnc1SCC(=O)N(Cc1ccccc1)c1ccc(S(N)(=O)=O)cc1 [Compound 4b, N-Benzyl-2-((4-methyl-4H-1,2,4-triazol-3-yl)thio)-N-(4-sulfamoylphenyl)acetamide]	–	–	37.6 ± 0.714	20.1 ± 0.621	90.3 ± 1.3	86.3 ± 1.29	201 to 203	82.5 ± 1.11	76.9 ± 1.27	45.3 ± 0.974	32.6 ± 0.728	20.4 ± 0.683	188 ± 8
Cc1nnc(SCC(=O)N(Cc2ccccc2)c2ccc(S(N)(=O)=O)cc2)s1 [Compound 4c, N-Benzyl-2-((5-methyl-1,3,4-thiadiazol-2-yl)thio)-N-(4-sulfamoylphenyl)acetamide]	–	–	40.6 ± 0.749	24.1 ± 0.61	91.1 ± 1.25	48.3 ± 0.855	164 to 166	–	–	–	–	–	–
Cn1nnnc1SCC(=O)N(Cc1ccccc1)c1ccc(S(N)(=O)=O)cc1 [Compound 4d, N-Benzyl-2-((1-methyl-1H-tetrazol-5-yl)thio)-N-(4-sulfamoylphenyl)acetamide]	–	–	39.2 ± 0.65	29.5 ± 0.489	91.6 ± 1.25	79.7 ± 1.46	–	76.2 ± 1.06	70.9 ± 1.01	47.5 ± 0.957	29.7 ± 0.723	15.2 ± 0.602	127 ± 5
NS(=O)(=O)c1ccc(N(Cc2ccccc2)C(=O)CSc2nnnn2-c2ccccc2)cc1 [Compound 4e, N-Benzyl-2-((1-phenyl-1H-tetrazol-5-yl)thio)-N-(4-sulfamoylphenyl)acetamide]	–	–	41.5 ± 0.899	28 ± 0.714	90.1 ± 1.01	48.4 ± 0.721	–	–	–	–	–	–	–
NS(=O)(=O)c1ccc(N(Cc2ccccc2)C(=O)CSc2ccccn2)cc1 [Compound 4f, N-Benzyl-2-(pyridin-2-ylthio)-N-(4-sulfamoylphenyl)acetamide]	–	–	46 ± 0.863	30.1 ± 0.627	90.6 ± 1.39	83.3 ± 1.26	–	76.3 ± 1.11	73.2 ± 1.06	48.6 ± 0.957	32.5 ± 0.721	20.9 ± 0.623	146 ± 6
NS(=O)(=O)c1ccc(N(Cc2ccccc2)C(=O)CSc2nc3ccccc3o2)cc1 [Compound 4g, 2-(Benzoxazol-2-ylthio)-N-benzyl-N-(4-sulfamoylphenyl)acetamide]	–	–	47.2 ± 0.979	32.2 ± 0.621	94.7 ± 1.34	47.3 ± 0.963	82 to 84	–	–	–	–	–	–
NS(=O)(=O)c1ccc(N(Cc2ccccc2)C(=O)CSc2nc3ccccc3s2)cc1 [Compound 4h, 2-(Benzothiazol-2-ylthio)-N-benzyl-N-(4-sulfamoylphenyl)acetamide]	–	–	39.1 ± 0.821	20.3 ± 0.608	96.2 ± 1.1	48.8 ± 0.879	88 to 90	–	–	–	–	–	–
COc1ccc2sc(SCC(=O)N(Cc3ccccc3)c3ccc(S(N)(=O)=O)cc3)nc2c1 [Compound 4j, N-Benzyl-2-((5-methoxybenzothiazol-2-yl)thio)-N-(4-sulfamoylphenyl)acetamide]	–	–	48.2 ± 0.825	37.4 ± 0.679	90.8 ± 1.25	45.1 ± 0.958	–	–	–	–	–	–	–
Cc1ccc(CN(C(=O)CSc2nccn2C)c2ccc(S(N)(=O)=O)cc2)cc1 [Compound 4k, 2-((1-Methyl-1H-imidazol-2-yl)thio)-N-(4-methylbenzyl)-N-(4-sulfamoylphenyl)acetamide]	–	–	39.3 ± 0.701	30.3 ± 0.582	79.5 ± 0.957	39 ± 0.702	153 to 155	–	–	–	–	–	–
Cc1ccc(CN(C(=O)CSc2nncn2C)c2ccc(S(N)(=O)=O)cc2)cc1 [Compound 4l, 2-((4-Methyl-4H-1,2,4-triazol-3-yl)thio)-N-(4-methylbenzyl)-N-(4-sulfamoylphenyl)acetamide]	–	–	42.3 ± 0.63	25.2 ± 0.712	74.2 ± 1.05	43.8 ± 0.882	229 to 231	–	–	–	–	–	–
Cc1ccc(CN(C(=O)CSc2nnc(C)s2)c2ccc(S(N)(=O)=O)cc2)cc1 [Compound 4m, 2-((5-Methyl-1,3,4-thiadiazol-2-yl)thio)-N-(4-methylbenzyl)-N-(4-sulfamoylphenyl)acetamide]	–	–	37.4 ± 0.85	31.1 ± 0.729	76.3 ± 1	40.1 ± 0.799	178 to 180	–	–	–	–	–	–
Cc1ccc(CN(C(=O)CSc2nnnn2C)c2ccc(S(N)(=O)=O)cc2)cc1 [Compound 4n, 2-((1-Methyl-1H-tetrazol-5-yl)thio)-N-(4-methylbenzyl)-N-(4-sulfamoylphenyl)acetamide]	–	–	40.2 ± 0.97	21.5 ± 0.632	72.2 ± 0.959	38.3 ± 0.638	–	–	–	–	–	–	–
Cc1ccc(CN(C(=O)CSc2nnnn2-c2ccccc2)c2ccc(S(N)(=O)=O)cc2)cc1 [Compound 4o, N-(4-Methylbenzyl)-2-((1-phenyl-1H-tetrazol-5-yl)thio)-N-(4-sulfamoylphenyl)acetamide]	–	–	44.2 ± 0.877	28.7 ± 0.509	68.3 ± 0.824	30.3 ± 0.721	–	–	–	–	–	–	–
COc1ccc2sc(SCC(=O)N(Cc3ccc(C)cc3)c3ccc(S(N)(=O)=O)cc3)nc2c1 [Compound 4u, 2-((5-Methoxybenzothiazol-2-yl)thio)-N-(4-methylbenzyl)-N-(4-sulfamoylphenyl)acetamide]	–	–	36.8 ± 0.678	29.9 ± 0.539	65.1 ± 0.985	36 ± 0.726	–	–	–	–	–	–	–
